Several values for one entry are separate records, joined by “and”; a condition that tells them apart may be missing. Identical values can stand only once. Like-named read-outs stand apart in the source and are kept apart here.
Columns and labels:
[1] = A2780 xenograft study: body weight; assay type: in vivo, athymic female mice; settings: Group 3: 80 mg/kg IP QD 1, 8, 15, individual mice, 80 mg/kg
Method: (§1) ODSH (50 mg/mL stock concentration) was made by Pyramid Laboratories, Inc. and stored at room temperature until use. As described further below, ODSH was administered either intravenously (IV), at a dose of 48 mg/kg and volume of 10 mL/kg, or subcutaneously (SC) at a dose of 24 mg/kg and volume of 5 ml/kg. Carboplatin obtained from a clinical supplier was stored at 4° C. until use. Carboplatin was administered by intraperitoneal injection (IP) at a dose of 80 mg/kg and volume of 10 mL/kg. Saline solution (0.9% NaCl) was used as a vehicle control for ODSH and administered by the same routes and in the same volumes as ODSH.
(§2) Human ovarian cancer cell line A2780 was used in the murine xenograft experiments as follows. Approximately 5×10^6 A2780 cells were used per mouse, injected subcutaneously into the right flank in 0.1 mL of 50% Matrigel/50% media. The study was initiated when tumors reached a size of 90-130 mg. 40 mice were used, 10 per treatment regimen. The mice were normal athymic female mice, aged 6-7 weeks, housed in microisolator cages and maintained under pathogen-free conditions. Tumor and body weights were measured three times per week.
(§3) Four treatment groups were studied.

[2] = tested on: Human ovarian cancer cell line A2780; assay: A2780 human ovarian cancer xenograft model: tumor weight; assay type: in vivo, athymic female mice; set-up: key to Mouse status printed in place of tumor weight: FD = Found Dead; TS = Terminal Sacrifice; settings: for Mouse status printed in place of tumor weight: Groups 2 and 3
Method: as §1, §2, §3

[3] = for Deaths: N = 10 per group
Method: All experiments were conducted on female athymic nude mice (Hsd:Athymic Nude-Foxn1nu) supplied by Harlan (Indianapolis, Ind.). Mice were received at four weeks of age, 12-15 grams in weight, and were acclimated for seven days prior to handling. The mice were housed in microisolator cages (Lab Products, Seaford, Del.) and maintained under specific pathogen-free conditions. All procedures were carried out under appropriate institutional guidelines for animal care.
Seven days following inoculation, tumors were measured using calipers and tumor weight was calculated using the animal study management software. […] Body weights were recorded when the mice were randomized and were taken twice weekly thereafter in conjunction with tumor measurements, on each of Days 1, 4, 8, 11, 15, 18, 22, 26, 30, 33, and 36.
The study was terminated when the vehicle control reached an endpoint of 1500 mg, on Day 36.

[4] = tested on: BxPC-3 pancreas tumor cell line; assay: BxPC-3 human pancreas tumor xenograft model: tumor weight, tumor growth inhibition (TGI); assay type: in vivo, female athymic nude mice
Method: Compounds tested in the experiment were as follows. ODSH was made by Pyramid Laboratories, Inc. (Costa Mesa, Calif.). ODSH was provided at a stock concentration of 50 mg/ml and stored at room temperature until use. ODSH was diluted in a 0.9% NaCl solution (B. Braun Medical Inc., Irvine, Calif.) to a concentration of 2.4 mg/ml to deliver 24 mg/kg, in a 10 ml/kg dose volume when administered intravenously. A concentration of 4.8 mg/ml was formulated to deliver a 24 mg/kg dose at a 5 ml/kg dose volume when administered subcutaneously. ODSH was formulated fresh prior to each dose.
Nab-paclitaxel was manufactured by Abraxis BioScience LLC (Bridgewater, N.J.) and diluted in a 0.9% NaCl solution to a concentration of 1.5 mg/ml to deliver 15 mg/kg, in a 10 ml/kg dose volume. All standard agent preparations were made fresh prior to their administration.
BxPC-3 cells were obtained and prepared as follows. The BxPC-3 pancreas tumor cell line was received from American Type Culture Collection (ATCC, Manassas, Va.). Cultures were maintained in RPMI 1640 medium (Hyclone, Logan, Utah) supplemented with 5% fetal bovine serum. The cells were housed in a 5% CO2 atmosphere. The cultures were expanded in tissue culture flasks at a 1:3 split ratio until a sufficient amount of cells were harvested.
BxPC-3 Human Pancreas Tumor Xenograft Model: Female athymic nude mice per treatment condition were inoculated subcutaneously in the right flank with 0.1 ml of a 50% RPMI 1640/50% Matrigel™ (BD Biosciences, Bedford, Mass.) mixture containing a suspension of BxPC-3 tumor cells (approximately 5×10^6 cells/mouse).
Study Director V.1.7.54k (Study Log).
Mean tumor growth inhibition (TGI) was calculated utilizing Formula A below (deaths were not included in the TGI calculations).
All statistical analyses in the xenograft study were performed with GraphPad Prism® v4 software.

anti-thrombin III = anti-thrombin III (Homo sapiens, UniProt P01008); settings: cited from earlier work
Xa = Xa (Homo sapiens, UniProt P00742); settings: cited from earlier work
anticoagulant activity = settings: cited from earlier work
IIa = IIa (Homo sapiens, UniProt P00734+P01008); settings: cited from earlier work
[5] = Total deaths on or before Day 26

anti-thrombin III, sequence (P01008 33-464, species assumed): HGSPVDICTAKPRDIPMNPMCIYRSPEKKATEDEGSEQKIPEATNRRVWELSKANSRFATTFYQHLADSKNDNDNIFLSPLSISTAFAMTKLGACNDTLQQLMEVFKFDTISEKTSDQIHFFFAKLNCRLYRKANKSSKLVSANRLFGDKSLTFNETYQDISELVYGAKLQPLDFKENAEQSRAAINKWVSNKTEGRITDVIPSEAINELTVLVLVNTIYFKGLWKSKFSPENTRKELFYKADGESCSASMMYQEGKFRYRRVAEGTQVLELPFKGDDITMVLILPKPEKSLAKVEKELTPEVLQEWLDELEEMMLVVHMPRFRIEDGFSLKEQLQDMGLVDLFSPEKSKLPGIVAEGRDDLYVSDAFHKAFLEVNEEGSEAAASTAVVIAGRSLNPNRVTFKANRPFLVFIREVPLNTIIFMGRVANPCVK
Xa, sequence (P01008 33-464 partner): as the sequence (P01008 33-464, species assumed) above
Xa, sequence (P00742 235-488 limits assumed): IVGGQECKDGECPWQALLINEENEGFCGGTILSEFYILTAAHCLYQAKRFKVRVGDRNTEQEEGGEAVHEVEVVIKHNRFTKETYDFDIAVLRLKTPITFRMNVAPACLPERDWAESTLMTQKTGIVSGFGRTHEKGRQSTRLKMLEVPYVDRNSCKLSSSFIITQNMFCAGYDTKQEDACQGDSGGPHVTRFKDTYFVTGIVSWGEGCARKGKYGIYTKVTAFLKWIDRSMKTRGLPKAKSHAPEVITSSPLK

N.N.O=C([O-])C1(C(=O)[O-])CCC1.[Pt+2] [Carboplatin, reference compound]
Individual weights, Day 1 Weight ([1]; Day 1 (baseline)): 23.2 g and 20.6 g and 22.6 g and 21.7 g and 20.7 g and 22.4 g and 19.7 g and 20.3 g and 21.6 g and 22.2 g
Day 4 Weight change ([1]; Day 4): −2.6% and −5.3% and −4.4% and −3.2% and 1.9% and −0.4% and −5.6% and −5.9% and −2.3% and −1.8%
Individual weights, Day 4 Weight ([1]; Day 4): 22.6 g and 19.5 g and 21.6 g and 21.0 g and 21.1 g (2×) and 22.3 g and 18.6 g and 19.1 g and 21.8 g
Day 6 Weight change ([1]; Day 6): −3.0% (2×) and −4.9% and 1.3% and −1.4% and 3.91% and −0.4% and −4.4% and −3.7% and −3.2%
Individual weights, Day 6 Weight ([1]; Day 6): 22.5 g and 19.6 g and 22.9 g and 21.4 g and 21.5 g (2×) and 22.3 g and 19.1 g and 19.4 g and 20.8 g
Day 8 Weight change ([1]; Day 8): 2.2% (2×) and 0.5% (2×) and 6.2% and 1.4% and 5.3% and 1.5% and −1.0% and −1.4%
Individual weights, Day 8 Weight ([1]; Day 8): 23.7 g and 20.7 g and 24.0 g and 22.0 g and 23.8 g and 22.9 g and 20.0 g and 20.1 g and 21.3 g and 22.3 g
Day 11 Weight change ([1]; Day 11): −7.3% and −4.9% and 0.9% and −5.5% and 2.4% and −3.6% and −5.1% and −6.4% and −11.1% and −7.7%
Individual weights, Day 11 Weight ([1]; Day 11): 21.5 g and 19.6 g and 22.8 g and 20.5 g (2×) and 21.2 g and 21.6 g and 18.7 g and 19.0 g and 19.2 g
Day 14 Weight change ([1]; Day 14): −2.2% and 1.0% and 2.7% and −0.5% and 9.7% and 3.1% and −1.5% and −3.0% and −10.6% and −9.5%
Individual weights, Day 14 Weight ([1]; Day 14): 22.7 g (2×) and 20.0 g and 23.2 g and 21.6 g and 23.1 g and 19.4 g and 19.7 g and 19.3 g and 20.1 g
Day 18 Weight change ([1]; Day 18): −4.3% and −1.9% and −5.8% and −10.6% and 6.3% and 4.0% and −8.6% and −7.9% and −17.1% and −9.0%
Individual weights, Day 18 Weight ([1]; Day 18): 22.2 g and 20.2 g (2×) and 21.3 g and 19.4 g and 22.0 g and 23.3 g and 18.0 g and 18.7 g and 17.9 g
Day 21 Weight change ([1]; Day 21): −0.4% and 3.9% and −4.9% and −8.3% and 13.5% and 7.1% and −8.6% (2×) and −5.4% and −15.7%
Individual weights, Day 21 Weight ([1]; Day 21): 23.1 g and 21.4 g and 21.5 g and 19.9 g and 23.5 g and 24.0 g and 18.0 g and 19.2 g and 18.2 g and 20.3 g
Day 25 Weight change ([1]; Day 25): 8.3% and −3.5% and −6.9% and −2.0% and −8.1%
Individual weights, Day 25 Weight ([1]; Day 25): 22.3 g and 21.8 g and 20.2 g and 19.9 g and 20.4 g
Day 28 Weight change ([1]; Day 28): 11.7% and −1.8% and −2.8% and 3.0% and −8.6%
Individual weights, Day 28 Weight ([1]; Day 28): 23.0 g and 22.2 g and 21.1 g and 20.9 g and 20.3 g
Tumor weight, Mean ([2]; Day 1): 107.3 mg
Tumor weight, Median ([2]; Day 1): 105.6 mg
Tumor weight, individual mice ([2]; Day 1, Mouse 1-10): 104 mg and 105 mg and 106 mg and 110 mg and 113 mg and 116 mg and 127 mg and 94 mg and 96 mg and 102 mg
Tumor weight, Mean ([2]; Day 4): 148.2 mg
Tumor weight, Median ([2]; Day 4): 144.5 mg
Tumor weight, individual mice ([2]; Day 4, Mouse 1-10): 108 mg (2×) and 175 mg and 199 mg and 142 mg and 163 mg and 147 mg and 194 mg and 137 mg and 109 mg
Tumor weight, Mean ([2]; Day 6): 213.0 mg
Tumor weight, Median ([2]; Day 6): 215.6 mg
Tumor weight, individual mice ([2]; Day 6, Mouse 1-10): 114 mg and 264 mg and 239 mg and 223 mg and 300 mg and 208 mg and 256 mg and 200 mg and 157 mg and 169 mg
Tumor weight, Mean ([2]; Day 8): 356.5 mg
Tumor weight, Median ([2]; Day 8): 364.2 mg
Tumor weight, individual mice ([2]; Day 8, Mouse 1-10): 148 mg and 466 mg and 358 mg and 371 mg and 605 mg and 306 mg and 386 mg and 419 mg and 245 mg and 262 mg
Tumor weight, Mean ([2]; Day 11): 483.1 mg
Tumor weight, Median ([2]; Day 11): 508.5 mg
Tumor weight, individual mice ([2]; Day 11, Mouse 1-10): 103 mg and 539 mg and 499 mg and 419 mg and 813 mg and 555 mg and 542 mg and 517 mg and 442 mg and 402 mg
Tumor weight, Mean ([2]; Day 14): 719.3 mg
Tumor weight, Median ([2]; Day 14): 750.3 mg
Tumor weight, individual mice ([2]; Day 14, Mouse 1-10): 96 mg and 875 mg and 799 mg and 628 mg and 1,093 mg and 795 mg and 975 mg and 587 mg and 706 mg and 640 mg
Tumor weight, Mean ([2]; Day 18): 984.1 mg
Tumor weight, Median ([2]; Day 18): 1,051.0 mg
Tumor weight, individual mice ([2]; Day 18, Mouse 1-10): 84 mg and 1,349 mg and 1,218 mg and 713 mg and 1,806 mg and 1,160 mg and 1,168 mg and 942 mg and 730 mg and 671 mg
Tumor weight, Mean ([2]; Day 21): 1,327.3 mg
Tumor weight, Median ([2]; Day 21): 1,328.6 mg
Tumor weight, individual mice ([2]; Day 21, Mouse 1-10): 112 mg and 1,790 mg and 1,596 mg and 834 mg and 2,675 mg and 1,626 mg and 1,439 mg and 1,218 mg and 941 mg and 1,040 mg
Tumor weight, Mean ([2]; Day 25): 1,761.3 mg
Tumor weight, Median ([2]; Day 25): 1,921.0 mg
Tumor weight, individual mice ([2]; Day 25, Mouse 1-10): 2,403 mg and 2,127 mg and 1,109 mg and 1,921 mg and 1,246 mg
Mouse status printed in place of tumor weight ([2]; Day 25, individual mice): TS
Tumor weight, Mean ([2]; Day 28): 2,243.0 mg
Tumor weight, Median ([2]; Day 28): 2,461.0 mg
Tumor weight, individual mice ([2]; Day 28, Mouse 1-10): 2,877 mg and 2,599 mg and 1,539 mg and 2,461 mg and 1,739 mg
Mouse status printed in place of tumor weight ([2]; Day 28, individual mice): TS

Nc1ccn([C@@H]2O[C@H](CO)[C@@H](O)C2(F)F)c(=O)n1 [Gemcitabine]
Deaths [3, 5]: 0
Deaths ([3]; Total deaths on or before Day 36): 0
Day by which the mice recovered their weight ([3]; mouse, in vivo): ≤ 18 days
Day on which maximum weight loss was reached ([3]; mouse, in vivo): 11 days
Maximum weight loss ([3]; mouse, in vivo): 8.7%
Starting Weight ([3]; mouse, in vivo): 22.48 g

O=C1[O][Pt]2([NH][C@@H]3CCCC[C@H]3[NH]2)[O]C1=O [Oxaliplatin, reference compound]
Difference in tumor weight compared to vehicle control, Day 26 ([4]; ANOVA with Tukey's Multiple Comparison Test, BxPC-3 xenograft): No significant difference
Tumor weight, Mean ([4]; Day 26, Group 3: oxaliplatin 10 mg/kg IV wkly x4 (alone to Day 26), from Day 26 gemcitabine 80 mg/kg IP + nab-paclitaxel 15 mg/kg IV): 635.0 mg
TGI (mean tumor growth inhibition), Day 26 ([4]; Day 26 vs Day 1, compared to vehicle control, BxPC-3 xenograft, ODSH 24 mg/kg BID, oxaliplatin 10 mg/kg, gemcitabine 80 mg/kg (Table 1)): 8.0%
Day 26 Tumor Weight ([4]; Table 14, treatment administered until Day 26): 635.0 ± 52.3 mg
Average Weight ([3]; Day 1): 20.82 g
% Weight Loss or Gain ([3]; Day 4): −2.02%
% Weight Loss or Gain ([3]; Day 8): −0.82%
Average Weight ([3]; Day 11): 20.12 g
% Weight Loss or Gain ([3]; Day 15): −0.05%
Average Weight ([3]; Day 15): 20.81 g
% Weight Loss or Gain ([3]; Day 18): −1.78%
Deaths [3, 5]: 0
Starting Weight ([3]; group mean body weight at start, dose, schedule and route per group as in table): 20.82 g
Mice with bruising on the tails or abdomen (site of injection) ([3]; ten mice per group, BxPC-3 xenograft study): One mouse

unfractionated heparin
Kd, affinity for anti-thrombin III (anti-thrombin III): 22 mg/L
Kd (anti-thrombin III; read-out: Kd, affinity for anti-thrombin III): 1.56 µM
anti-Xa activity (Xa): 165-190 U/mg
Anticoagulant activity, USP anticoagulant assay (anticoagulant activity): 165-190 U/mg
anti-IIa activity (IIa): 165-190 U/mg
